Test results taken from PMC9643865, “Bromo-protopine, a novel protopine derivative, alleviates tau pathology by activating chaperone-mediated autophagy for Alzheimer’s disease therapy” (Frontiers in Molecular Biosciences, 2022).

Columns and labels:
HT22 cells = experiment: LAMP2A / HSC70 immunocytochemistry and immunoblotting; type: cell-based, mouse; conditions: immunocytochemistry, 12.5 and 25 μM, 24 h
Procedure: SHSY5Y cells stably-expressing mutant tau (SHSYP301L) were cultured in DMEM/F12 + 15% FBS, 3 μg/ml Blasticidin S HCl, and 1X PSN. N2A mouse neuroblastoma and mouse hippocampal neuronal (HT22) cells were cultured in DMEM+10% FBS, and 1X PSN. Sterile complete medium containing PRO-Br was added to the cells, and they were then incubated for 24 h at an optimum temperature of 37°C in a sterile 5% CO2 incubator.
After PRO-Br treatment, cells were solubilised using cold RIPA lysis buffer (9803, Life Technologies), containing protease and phosphatase inhibitor tablets. Cells were sonicated and centrifuged at 14000 rpm for 15 min. Total protein concentration was determined by BCA protein assay, and the samples were separated on SDS-PAGE and transferred to PVDF membranes. The membranes were blocked, washed, and incubated with primary antibodies (Table 1), and incubated at 4°C, overnight. The membranes were further incubated with the required dilutions of secondary antibody for 1 h, at RT. The chemiluminescent signals were captured using x-ray film in a darkroom, with an appropriate chemiluminescent substrate kit (ThermoFisher Scientific, United States). Films were scanned, and the relative intensities of the signals were analyzed using ImageJ software.
HT22 cells were cultured in sterile 24-well culture dishes containing 14 mm cover-glass. Cells were treated with PRO-Br (12.5 and 25 μM), and DMSO (0.1%), for 24 h. Cells were fixed with paraformaldehyde (4%), permeabilized with triton-X-100 (0.1%), and blocked with BSA (2%). LAMP2A antibody (1:500), and HSC70 antibody (1:500) was added to the processed cells and incubated overnight at four°C. Alexa Fluor® 488 (green) and Alexa Fluor® 594 (red) secondary antibodies (1:400) were added and incubated for 1.5 h at room temperature. FluorSave reagent (Merck Millipore, United States) was added, then cover-slipped, and images were captured by a Leica confocal imaging system.

HDAC6 = molecular target: T1, HDAC6 (Homo sapiens, UniProt Q9UBN7); experiment: HDAC6 deacetylase fluorometric assay with pure HDAC6 protein; type: biochemical; conditions: read-out: 50% inhibitory concentration (IC50) on HDAC6 activity
T1 construct: purchased Enzo Life Sciences BML-AK516
T1 sequence (Q9UBN7 1-1215): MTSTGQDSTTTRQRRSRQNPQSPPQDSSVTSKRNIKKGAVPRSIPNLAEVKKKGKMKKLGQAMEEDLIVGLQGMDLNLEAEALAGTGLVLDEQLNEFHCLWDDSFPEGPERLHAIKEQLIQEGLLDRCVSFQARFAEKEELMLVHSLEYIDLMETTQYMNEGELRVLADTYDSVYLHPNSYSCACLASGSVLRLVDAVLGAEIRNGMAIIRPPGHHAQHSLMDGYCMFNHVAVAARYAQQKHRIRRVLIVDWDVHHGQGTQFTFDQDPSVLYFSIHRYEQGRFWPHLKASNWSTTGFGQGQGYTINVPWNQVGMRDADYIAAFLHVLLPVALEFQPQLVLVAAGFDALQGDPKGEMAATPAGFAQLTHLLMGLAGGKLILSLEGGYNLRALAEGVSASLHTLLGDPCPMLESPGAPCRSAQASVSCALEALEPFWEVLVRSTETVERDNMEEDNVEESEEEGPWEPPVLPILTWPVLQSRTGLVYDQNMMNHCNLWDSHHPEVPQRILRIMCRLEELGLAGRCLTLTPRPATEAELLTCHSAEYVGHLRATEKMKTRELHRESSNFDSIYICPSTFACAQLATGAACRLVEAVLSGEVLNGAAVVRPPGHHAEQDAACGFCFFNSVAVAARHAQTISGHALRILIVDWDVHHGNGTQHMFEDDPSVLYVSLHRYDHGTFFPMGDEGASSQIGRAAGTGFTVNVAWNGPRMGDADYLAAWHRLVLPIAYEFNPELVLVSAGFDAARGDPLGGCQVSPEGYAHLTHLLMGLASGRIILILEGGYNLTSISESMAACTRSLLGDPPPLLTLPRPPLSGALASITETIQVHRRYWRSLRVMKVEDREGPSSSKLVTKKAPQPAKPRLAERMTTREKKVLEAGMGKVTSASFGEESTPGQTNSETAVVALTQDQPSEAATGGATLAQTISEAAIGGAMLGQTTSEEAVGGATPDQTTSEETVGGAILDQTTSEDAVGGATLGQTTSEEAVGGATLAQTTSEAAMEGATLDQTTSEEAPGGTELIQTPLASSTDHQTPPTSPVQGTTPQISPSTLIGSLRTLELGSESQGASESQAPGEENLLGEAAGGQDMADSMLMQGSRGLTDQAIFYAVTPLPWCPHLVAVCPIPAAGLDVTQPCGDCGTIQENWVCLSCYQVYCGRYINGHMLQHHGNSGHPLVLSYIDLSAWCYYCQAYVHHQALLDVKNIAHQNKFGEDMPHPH
Procedure: Inhibition of HDAC6 activity was performed in accordance with the manufacturer’s protocol. Briefly, PRO-Br at various concentrations in HDAC Assay buffer II were prepared. The appropriate substrate solution provided in the kit was added, and the reaction plate was incubated at 37°C. The reaction was stopped by the addition of Developer II, and the fluorometric reading was measured at 440 nm using a fluorometer (Wallac EnVision).
HDAC6 is a cytoplasmic deacetylase that targets key proteins such as α-tubulin and HSP90. […] Therefore, inhibition of HDAC6 activity could be a promising therapeutic strategy for AD. […] To determine the binding of PRO/PRO-Br to HDAC6, we used molecular docking, and the binding affinity was determined from the binding free energies (Kcal/mol). From the docking study, the binding free energy of PRO-Br and PRO with HDAC6 was calculated to be −8.4 kcal/mol and −8.1 kcal/mol (Figures 5C–F), respectively.

IC50 (HDAC6): 2360 nM
Structure (SMILES): CN1CCc2cc3c(cc2C(=O)Cc2ccc4c(c2C1)OCO4)OCO3 [PRO, Protopine]
expression of LAMP2A (HT22 cells): did not enhance LAMP2A protein expression
